Data published in patent US6569404B1, “Phase shift colloids as ultrasound contrast agents” (priority 1993, dated 2003).
Read-outs that look alike come from different tables or passages of the source.

Tests used:
[1] = In vitro ultrasound backscatter / echogenicity of formulations (qualitative); conditions: in words
dogs = conditions: Ziskin et al. 1972, cited from earlier work
[2] = cited from earlier work
[3] = Acoustic backscatter: gray scale intensity (videodensity) in water beaker at 37° C., Hewlett Packard 77020 scanner, 5.0 MHz
Method: Two solutions were prepared to simulate the administration to an organism of either a colloidal dispersion of a low boiling liquid or the liquid, neat.
The emulsions contained Fluorad 170 C as surfactant and were formed by applying acoustic energy from a waterbath sonicator.

[4] = Interfacial tension against dodecafluoropentane at 4° C., Kruss Drop Volume Tensiometer DVT-10; type: physicochemical; conditions: from graph of IFT versus HLB
Method: Mixtures of Pluronic P-123 and Pluronic F-127 were formed, yielding a 1% solution, v/v, with graded HLB numbers and the interfacial tension (IFT) of the solutions against dodecafluoropentane determined at 4° C., using a Kruss Drop Volume Tensiometer DVT-10, Kruss USA, Charlotte, N.C. The results are contained in the following table:
Interfacial tensions of various amphiphilic materials in aqueous solutions (all expressed as v/v solutions) against dodecafluoropentane were measured at 4° C. and emulsions created from each formulation, as described in Example 13.

[5] = Backscatter persistence and intensity of 2% mixtures in saline, 1000 mL water at 37° C., Hewlett-Packard 77020A; conditions: for Ratio of Intensity: backscatter intensity qualitatively ranked from 0 to 5
Method: The following emulsions were formulated and tested according to methods described in Example 18.
All solutions were made as a 2% solution in saline. A volume of 0.1 cc of each chemical was comminuted with 5 cc saline through a 3-way stopcock for 25 passes. A volume of 1.0 mL of the mixture was immediately injected through a 1.2 μm filter into a stirring water bath containing 1000 mL water at 37° C. The resulting backscatter was then recorded with the use of a Hewlett-Packard 77020A Ultrasound System at […].

[6] = at 25° C.; cited from earlier work
[7] = Emulsion stability versus relative HLB of Pluronic L61/F68 mixtures; type: physicochemical; conditions: from stability of emulsions
Text: The relative hydrophilic-lipophilic balance (HLB) is a method of optimizing a nonionic surfactant solution to achieve greatest stability. It is described in detail in Emulsions: Theory and Practice, Paul Becher, 1965, Robert E. Krieger Publishing Company Malabar, Fla., and references contained therein, and is incorporated here by reference. Solutions of Pluronic L61 (HLB 3.0) and F68 (HLB 29) were mixed to achieve intermediate HLB values by the following formula:
HLB=fL61 {HLB of L61}+ff68 {HLB of F68} The actual solutions, the calculated HLB values, and the stability of the final formulation (a 2% v/v emulsion of dodecafluorohexane) are contained in the following table: […]

[8] = Expected change in dispersion size from liquid and gas densities; conditions: calculated from cubic root of volume
Method: One can also calculate the expected change in dispersion size if one knows the relative densities of the dispersed liquid as a gas and liquid. For example, the Gas Data Book, by W Braker and A Mossman, Matheson, contains such data. Examining octafluorocyclobutane, one finds that 1 L of the liquid yields 188 L of gas at a pressure of 760 mm Hg and 15° C. Since the volume of a sphere is related to the diameter of a sphere by the cubic root of the volume, the phase transition for an octafluorobutane emulsion particle will cause a 5.7-fold increase in diameter.

[9] = 760 mm Hg and 15° C.; Gas Data Book; cited from earlier work
[10] = Chemical List of low boiling liquids, Example 45
[11] = dispersed phase of emulsions of Example 18

## CCOCC [ether, diethyl ether]
[1]
  in vitro ultrasound backscatter characteristics: useful contrast signal
dogs; injections of 20 mL
  lethality: proved fatal
dogs; intraarterial
  contrast effect (Doppler signal): greatest contrast effect of any agent that we tried
[2]; [10]
  Boiling Point: 34.5 degrees Celcius

## FC(F)(F)C(F)(F)C(F)(F)C(F)(F)C(F)(F)F [dodecafluoropentane]
[3]; emulsion with Fluorad 170 C, 0.2 mL in 1000 mL water at 37° C., six seconds, backgrounds 2.9, 3.0, 3.6
  grayscale intensity: 58.5 units
[3]; fifty-two seconds post-injection into 1000 mL water at 37° C., gray scale of 2 to 254
  grayscale intensity: 5.0
[3]; five seconds post-injection into 1000 mL water at 37° C., gray scale of 2 to 254, 0.1 mL emulsion (before 4.27) or 0.2 mL neat liquid (before 4.9)
  grayscale intensity: 7.7
[4]
  HLB for the dispersed phase liquid: about 14
[5]; 1.0 mL in 1000 mL water at 37° C.
  time over which backscatter diminished: 4 to 5 min
[5]; 2% in saline, 1.0 mL in 1000 mL water at 37° C., saline+air set as 1
  Ratio of Persistence: 24
[5]
  Ratio of Intensity: 5
[5]; listed as Dodecafluoropentane
  Ratio of Intensity: 5.0
[2]; [10]
  Boiling Point: 30.5 degrees Celcius
[2]; chemicals of Example 52
  B.P.: 29 °C
[2]
  Boiling Point: 28-29 °C
[2]; [11]
  Boiling Point: 29 °C
[6]
  Vapor Pressure: 646 mmHg at 25 °C

## FC(F)(F)C(F)(F)C(F)(F)C(F)(F)C(F)(F)C(F)(F)F [Perfluorohexane, reference compound]
[7]
  relative HLB established: 6-8
[2]; [11]
  Boiling Point: 59 °C

## FC1(F)C(F)(F)C(F)(F)C1(F)F [octafluorocyclobutane]
[8]
  increase in diameter of emulsion particle on phase transition: 5.7 fold
[9]
  volume of gas from 1 L of the liquid: 188 L
